Test results: patent US12371454B2, “Cyclic peptide compound having Kras inhibitory action” (priority 2019, dated 2025)
Starred links: 1 amine or outer side, 2 acyl side, 3 side chain; linkers in the order of their positions; H or OH if unused. Positions of bridges follow the written chain, without caps; N, C: chain ends. Non-standard residues stand in square brackets, D forms with d. Residues, ends and D or L forms follow the SMILES beside them. *: point of attachment. hPhe(3-Cl-4-CF3) = N[C@@H](CCc1ccc(C(F)(F)F)c(Cl)c1)C(=O)O; hPhe(4-CF3) = N[C@@H](CCc1ccc(C(F)(F)F)cc1)C(=O)O; X50 = O=C([C@H](Cc1cc(F)cc(Br)c1)N[*:1])[*:2]; NMePhe(4-Cl) = CN[C@@H](Cc1ccc(Cl)cc1)C(=O)O; NMePhe(4-Me) = CN[C@@H](Cc1ccc(C)cc1)C(=O)O; NMeAla(cPent) = CN[C@@H](CC1CCCC1)C(=O)O; hNle(7,7-F2) = N[C@@H](CCCCC(F)F)C(=O)O; NMeGly(cPent) = CN[C@H](C(=O)O)C1CCCC1; Phe(2-Cl) = N[C@@H](Cc1ccccc1Cl)C(=O)O; Phe(3-I) = N[C@@H](Cc1cccc(I)c1)C(=O)O; NMeY = CN[C@@H](Cc1ccc(O)cc1)C(=O)O; NMeCha = CN[C@@H](CC1CCCCC1)C(=O)O; hhPhe = N[C@@H](CCCc1ccccc1)C(=O)O; NMeChg = CN[C@H](C(=O)O)C1CCCCC1; NMeD = CN[C@@H](CC(=O)O)C(=O)O; NMeL = CN[C@@H](CC(C)C)C(=O)O; NMeV = CN[C@H](C(=O)O)C(C)C; d(β3hA) = C[C@@H](N)CC(=O)O; NMeAbu = CC[C@H](NC)C(=O)O; Morpholide = C1CN(*)CCO1; NMeA = CN[C@@H](C)C(=O)O; NMeAib = CNC(C)(C)C(=O)O; Nle = CCCC[C@H](N)C(=O)O; Piperidide = C1CCN(*)CC1; Ac5c = NC1(C(=O)O)CCCC1; Aze = O=C(O)[C@@H]1CCN1; Sar = CNCC(=O)O

molecular target: T1, Kras and SOS1 (biotin-tagged human Kras loaded with GDP, His-tagged human SOS1) (Homo sapiens, UniProt P01116, G12D); assay: Protein-protein interaction inhibition between Kras and SOS1 (KrasGl2D-SOS PPI) using AlphaScreen; assay type: binding; settings: AlphaScreen; biotin-tagged human Kras loaded with GDP, His-tagged human SOS1; read-out: KRAS G12D-SOS PPI IC50
T1 construct: made in house; host or cells: E. coli (stated for Kras only)
T1 sequence (P01116 1-188 isoform P01116-2 G12D): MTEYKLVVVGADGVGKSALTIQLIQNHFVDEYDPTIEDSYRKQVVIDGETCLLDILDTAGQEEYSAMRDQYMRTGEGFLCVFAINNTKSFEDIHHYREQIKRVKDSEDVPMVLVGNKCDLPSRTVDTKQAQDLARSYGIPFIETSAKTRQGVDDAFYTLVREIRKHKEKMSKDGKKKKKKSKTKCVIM
Summary of the method: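 Kras was produced in E. coli, purified, then loaded with GDP. It was paired via streptavidin acceptor beads with His-SOS1 held on nickel donor beads, and proximity signal at 520-620 nm was read after 680 nm illumination.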

SMILES	IC50
CC[C@H](C)[C@@H]1NC(=O)[C@H](C)N(C)C(=O)C[C@@H](C(=O)N2CCCCC2)N(C)C(=O)[C@H](C(C)C)N(C)C(=O)C2(CCCC2)NC(=O)[C@@H]2CCCN2C(=O)[C@H](CCc2ccc(C(F)(F)F)c(Cl)c2)NC(=O)CN(C)C(=O)[C@H](CC2CCCCC2)N(C)C(=O)[C@@H]2CCN2C(=O)[C@H](CC2CCCCC2)N(C)C1=O [Compound 1580] ([NMeA]I[NMeCha][Aze][NMeCha][Sar][hPhe(3-Cl-4-CF3)]P[Ac5c][NMeV][NMeD]-Piperidide; lactam N-11)	11 nM
CC[C@H](C)[C@@H]1NC(=O)[C@H](CC(C)C)N(C)C(=O)C[C@@H](C(=O)N(C)C)N(C)C(=O)[C@H](C2CCCC2)N(C)C(=O)C2(CCCC2)NC(=O)[C@@H]2CCCN2C(=O)[C@H](CCc2ccc(C(F)(F)F)c(Cl)c2)NC(=O)CN(C)C(=O)[C@H](Cc2ccc(C)cc2)N(C)C(=O)CN(C)C(=O)CN(C)C1=O [Compound 1779] ([NMeL]I[Sar][Sar][NMePhe(4-Me)][Sar][hPhe(3-Cl-4-CF3)]P[Ac5c][NMeGly(cPent)][NMeD]-NMe2; lactam N-11)	0.52 nM
CC(C)C[C@H]1C(=O)N[C@@H](CCCCC(F)F)C(=O)N(C)CC(=O)N(C)CC(=O)N(C)[C@@H](CC2CCCCC2)C(=O)N(C)CC(=O)N[C@@H](CCc2ccc(C(F)(F)F)c(Cl)c2)C(=O)N2CCC[C@H]2C(=O)NC2(CCCC2)C(=O)N(C)[C@@H](C2CCCCC2)C(=O)N(C)[C@H](C(=O)N2CCCCC2)CC(=O)N1C [Compound 92] ([NMeL][hNle(7,7-F2)][Sar][Sar][NMeCha][Sar][hPhe(3-Cl-4-CF3)]P[Ac5c][NMeChg][NMeD]-Piperidide; lactam N-11)	5.5 nM
CC[C@H](C)[C@@H]1NC(=O)[C@H](C)N(C)C(=O)C[C@@H](C)NC(=O)[C@H](CC(C)C)N(C)C(=O)[C@H](CC2CCCCC2)N(C)C(=O)[C@@H]2CCCN2C(=O)[C@H](CCc2ccc(C(F)(F)F)cc2)NC(=O)CN(C)C(=O)[C@H](Cc2ccc(Cl)cc2)N(C)C(=O)CN(C)C(=O)CN(C)C1=O [Compound 383] (cyclo(I[Sar][Sar][NMePhe(4-Cl)][Sar][hPhe(4-CF3)]P[NMeCha][NMeL][d(β3hA)][NMeA]))	260 nM
CC[C@H](C)[C@@H]1NC(=O)[C@H](CC(C)C)N(C)C(=O)C[C@@H](C(=O)N2CCCCC2)N(C)C(=O)[C@H](CC2CCCCC2)N(C)C(=O)C2(CCCC2)NC(=O)[C@@H]2CCCN2C(=O)[C@H](CCc2ccc(C(F)(F)F)c(Cl)c2)NC(=O)CN(C)C(=O)[C@H](CC2CCCCC2)N(C)C(=O)CN(C)C(=O)CN(C)C1=O [Compound 577] ([NMeL]I[Sar][Sar][NMeCha][Sar][hPhe(3-Cl-4-CF3)]P[Ac5c][NMeCha][NMeD]-Piperidide; lactam N-11)	21 nM
CCCC[C@@H]1NC(=O)[C@H](Cc2cc(F)cc(Br)c2)NC(=O)CN(C)C(=O)[C@H](Cc2ccc(OC)cc2)N(C)C(=O)[C@@H]2CCN2C(=O)[C@H](C)N(C)C(=O)[C@H]([C@@H](C)CC)NC(=O)[C@H](CC)N(C)C(=O)C[C@@H](C(=O)N2CCCCC2)N(C)C(=O)[C@H](CC(C)C)NC(=O)C(C)(C)N(C)C1=O [Compound 1372] ([NMeAbu]I[NMeA][Aze][NMeY](Me)[Sar][X50][Nle][NMeAib]L[NMeD]-Piperidide; lactam N-11)	17 nM
CC[C@H](C)[C@@H]1NC(=O)[C@H](CC(C)C)N(C)C(=O)C[C@@H](C(=O)N2CCCCC2)N(C)C(=O)[C@H](CC(C)C)NC(=O)C(C)(C)N(C)C(=O)[C@H](Cc2ccccc2Cl)NC(=O)[C@H](Cc2cccc(I)c2)NC(=O)CN(C)C(=O)[C@H](Cc2ccc(C)cc2)N(C)C(=O)CN(C)C(=O)CN(C)C1=O [Compound 706] ([NMeL]I[Sar][Sar][NMePhe(4-Me)][Sar][Phe(3-I)][Phe(2-Cl)][NMeAib]L[NMeD]-Piperidide; lactam N-11)	66 nM
CC[C@H](C)[C@@H]1NC(=O)[C@H](CC(C)C)N(C)C(=O)C[C@@H](C(=O)N2CCOCC2)N(C)C(=O)[C@H](C(C)C)N(C)C(=O)C2(CCCC2)NC(=O)[C@@H]2CCCN2C(=O)[C@H](CCc2ccc(C(F)(F)F)c(Cl)c2)NC(=O)CN(C)C(=O)[C@H](CC2CCCC2)N(C)C(=O)CN(C)C(=O)CN(C)C1=O [Compound 1848] ([NMeL]I[Sar][Sar][NMeAla(cPent)][Sar][hPhe(3-Cl-4-CF3)]P[Ac5c][NMeV][NMeD]-Morpholide; lactam N-11)	1.4 nM
CC[C@H](C)[C@@H]1NC(=O)[C@H](C)N(C)C(=O)C[C@@H](C(=O)N2CCCCC2)N(C)C(=O)[C@H](C2CCCCC2)N(C)C(=O)C2(CCCC2)NC(=O)[C@@H]2CCCN2C(=O)[C@H](CCCc2ccccc2)NC(=O)CN(C)C(=O)[C@H](CC2CCCCC2)N(C)C(=O)CN(C)C(=O)CN(C)C1=O [Compound 633] ([NMeA]I[Sar][Sar][NMeCha][Sar][hhPhe]P[Ac5c][NMeChg][NMeD]-Piperidide; lactam N-11)	120 nM
